# Test results as given in article PMC11557573, “Aspergillus flavipes L-methionine γ-lyase-β-cyclodextrin conjugates with improved stability, catalytic efficiency and anticancer activity” (Scientific Reports, 2024).
# System: T1, A. flavipes L-methionine γ-lyase (MGL), free MGL
# T1 construct: native intracellular enzyme purified from A. flavipes mycelium (acetone, Sephadex G100, DEAE-Sepharose); 48 kDa subunit; PLP enzyme; free (not cyclodextrin-conjugated)
# Experiment: released thiol/ammonia assay (DTNB), Lineweaver-Burk
# Format: biochemical, Aspergillus flavipes
# Settings: free enzyme; standard assay Tris-HCl pH 7.8, 10 μM PLP, 37 °C
# Description: released thiol/ammonia assay (DTNB), Lineweaver-Burk on A. flavipes L-methionine γ-lyase (MGL), free MGL
row,SMILES,Km [mM]
1,CSCC[C@H](N)C(=O)O [L-methionine],7.2
2,N[C@@H](CS)C(=O)O [L-cysteine],9.5
3,NC(CCS)C(=O)O (racemic) [DL-homocysteine],12.2
